Reference: patent US12076312B2, “Repurposing anti-androgen therapy for COVID-19 and immunotherapy” (Wisconsin Alumni Research Foundation, priority 2021, dated 2024)

Key:
[1] = tested on: AR mRNA in NCI-H2228 lung cancer cells; assay: AR mRNA level by qRT-PCR; format: cell-based
Protocol: (§1) From two independent biological experiments with 3 replicates (n=6), RNA samples were collected with TRIzol reagent (Invitrogen) and isolated using RNeasy Mini Kit (Qiagen). RNA concentrations were measured using A260 nm/A280 nm spectroscopy on the Nanodrop ND-1000 (Thermo-scientific). For each RNA sample, 1000 ng of RNA was reversed transcripted into first-strand cDNA using the High-Capacity RNA-to-cDNA Kit (Applied Biosystems).
(§2) Three independent biological replicates of mRNA samples were collected for each condition, and three technical replicates were run for each sample in qRT-PCR. The fold changes and p-values were calculated with the ΔΔCt method32 and two-sample t-test, respectively. Ubiquitin C (UBC) was used as the housekeeping gene for normalization.

[2] = tested on: AR mRNA in A549 lung cancer cells; assay: AR mRNA level by qRT-PCR; format: cell-based
Protocol: as §1, §2

[3] = tested on: AR responsive genes in NCI-H2228 cells; assay: AR signaling gene panel qRT-PCR; format: cell-based; settings: NCI-H2228, enzalutamide 5 μM, 24 h (FIG. 2C)
Protocol: as §1
(§3) Changes in expression levels of AR signaling genes were screened using Bio-Rad's PrimePCR pathway 384-well panel: Androgen Receptor Signaling SAB target list (Cat #10047228) and Androgen Receptor Nuclear Signaling (Cat #10025068). […] Two independent biological replicates of mRNA samples were collected for each condition, and one reaction was run for each sample. If necessary, additional technical replicates were run to rule out any outlier. Relative mRNA expressions and p-values were calculated using the ΔΔCt method and two-sample t-test in Bio-Rad CFX Maestro program (version: 4.0.2325.0418). […] The stabilities of housekeeping genes were checked using the geNorm algorithm provided in CFX Maestro. M values of all housekeeping genes used in this study are less than 0.5, which is considered ideal. Log 2-transformed expression levels and −log 10 (p-value) of all treatment groups were plotted as Bubble and Color map graph in the Origin 2020 software.

[4] = tested on: AR responsive genes in A549 cells; assay: AR signaling gene panel qRT-PCR; format: cell-based; settings: A549, enzalutamide 5 μM, 24 h
Protocol: as §1, §3

AR = AR (Homo sapiens, UniProt P10275); settings: cited from earlier work
[5] = biological target: mutant AR forms (F877L mutation) (Homo sapiens, UniProt P10275, F877L); settings: F877L mutation that confers resistance to enzalutamide; cited from earlier work
[6] = tested on: AR protein translocation in H2228; assay: AR immunofluorescent imaging, nuclear translocation; settings: H2228, 1 nM R1881, 24 h
Protocol: (§4) After incubating in blocking buffer (5% normal goat serum and 0.2% fish skin gelatin in 0.2% Tween/PBS) for 1 hour at room temperature, the cells were stained with primary antibodies overnight at 4° C. […] Immunofluorescence images were captured on Leica TCS WLL SP8 Laser scanning confocal microscopy (Leica Microsystems) using 63× oil immersion objective (Scale bar: 10 μm). Multiple images were taken at different fields of coverslip to obtain at least 100 cells for AR quantification. The sum of pixel intensities of AR signal within the nucleus and cytoplasm was quantified using a custom MATLAB program (R2017b, MathWorks). Briefly, the program utilized the actin and DRAQ5 channels to create masks for the cytoplasm and nucleus regions, respectively. These masks were then used to determine the AR signal within cytoplasm and nucleus, and the nucleus-to-cytoplasm ratio of AR signal was calculated by dividing the AR signal inside the nucleus by the AR signal within the entire cell (nucleus and cytoplasm).

[7] = tested on: AR protein translocation in A549; assay: as above; settings: A549, 1 nM R1881, 24 h
Protocol: as §4

Sequence of mutant AR forms (F877L mutation) (P10275 whole entry F877L): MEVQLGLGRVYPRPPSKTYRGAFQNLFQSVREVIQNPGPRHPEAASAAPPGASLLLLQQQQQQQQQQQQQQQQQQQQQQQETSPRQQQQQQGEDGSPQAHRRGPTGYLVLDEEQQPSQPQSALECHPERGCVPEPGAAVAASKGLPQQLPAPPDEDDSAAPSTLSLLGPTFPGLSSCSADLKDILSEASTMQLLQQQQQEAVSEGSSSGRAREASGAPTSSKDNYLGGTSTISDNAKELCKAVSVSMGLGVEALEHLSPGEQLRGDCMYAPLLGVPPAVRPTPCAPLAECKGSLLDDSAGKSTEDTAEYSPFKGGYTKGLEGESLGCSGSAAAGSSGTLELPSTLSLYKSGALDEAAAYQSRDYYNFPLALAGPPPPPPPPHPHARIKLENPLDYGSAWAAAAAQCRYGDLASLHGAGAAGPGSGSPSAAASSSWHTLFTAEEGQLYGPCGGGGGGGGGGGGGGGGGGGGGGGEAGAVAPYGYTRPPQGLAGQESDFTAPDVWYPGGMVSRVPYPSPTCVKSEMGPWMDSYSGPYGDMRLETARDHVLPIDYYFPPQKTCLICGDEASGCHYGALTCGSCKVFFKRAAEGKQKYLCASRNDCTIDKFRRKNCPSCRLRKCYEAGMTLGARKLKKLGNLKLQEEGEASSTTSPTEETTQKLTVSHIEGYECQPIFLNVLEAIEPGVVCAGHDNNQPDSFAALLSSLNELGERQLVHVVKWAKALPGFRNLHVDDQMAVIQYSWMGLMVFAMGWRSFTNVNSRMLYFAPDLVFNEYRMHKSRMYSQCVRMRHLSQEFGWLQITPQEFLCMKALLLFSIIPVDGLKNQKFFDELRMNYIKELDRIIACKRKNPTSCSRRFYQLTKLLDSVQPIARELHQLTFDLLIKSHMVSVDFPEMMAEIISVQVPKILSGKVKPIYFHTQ
Sequence of AR (P10275 whole entry): as the sequence (P10275 whole entry F877L) above, with L877F counted along it

Which AR expression ([1]; H2228, enzalutamide without ligand stimulation) does the source give for `CNC(=O)c1ccc(N2C(=S)N(c3ccc(C#N)c(C(F)(F)F)c3)C(=O)C2(C)C)cc1F` [enzalutamide] here?
The AR expression was “increased AR expression”.

And the AR expression ([2]; A549, enzalutamide without ligand stimulation)?
The AR expression was “increased AR expression”.

And the “R1881-induced downregulation of AR expression” value ([2]; male A549, pre-treatment with enzalutamide 30 min before 1 nM R1881)?
Its value is “blocked”.

And the IL6 expression [3]?
The IL6 expression was “significantly upregulated”.

And the “FOS expression log 2FC” value ([4]; p-value=0.008)?
Its value is −1.627 log 2FC.

What about the “IL6 expression log 2FC” value ([4]; p-value=0.023) of the same compound?
Its value is −2.41 log 2FC.

And the “MAF expression log 2FC” value ([4]; p-value=0.035)?
The value was 2.44 log 2FC.

What does the source list for `CC(O)c1cc(C(=O)N[C@@H](C)Cn2ccc(-c3ccc(C#N)c(Cl)c3)n2)[nH]n1` (stereo partly shown) [Darolutamide]?
greater affinity for AR compared with enzalutamide (AR): 8 fold; activity against mutant AR forms [5]: Remains antagonistic

With `C[C@]1(O)CC[C@H]2[C@@H]3CCC4=CC(=O)CCC4=C3C=C[C@@]21C` [R1881, Metribolone] as the compound, how does the “AR transport to the nucleus” value [6] read?
Its value is “efficiently transported to the nucleus”.

What about the AR expression ([1]; female H2228, androgen (R1881) stimulation) of the same compound?
The AR expression was “minimal changes”.

And the “AR mRNA level” value ([2]; male A549, R1881 1 nM, 2, 4, 8 and 24 h vs control)?
The value was “temporally downregulated”.

And the “AR transport to the nucleus” value [7]?
Its value is “efficiently transported to the nucleus”.
